Measurements from ChEMBL document CHEMBL3045223, “Synthesis, nematicidal and antimicrobial properties of Bis-[4-methoxy-3-[3-(4-fluorophenyl)-6-(4-methylphenyl)-2(aryl)-tetrahydro-2H-pyrazolo[3,4-d]thiazol-5-yl]phenyl]methanes” (2009).
Values after ≈ are worked out from the molar mass of the structure shown. Active and inactive are the calls of the source. The rule behind the calls is not given here.

Experiments:
Type in all cases: functional
Klebsiella aerogenes [1] = assay: Antibacterial activity against Enterobacter aerogenes MTCC 39 assessed as growth arrest at 37 degC for 24 hr; conditions: MTCC 39, 24 h
[2] = system: Chromobacterium violaceum; assay: Antibacterial activity against Chromobacterium violaceum MTCC 2656 assessed as growth arrest at 37 degC for 24 hr; conditions: MTCC 2656, 24 h
[3] = system: Chromobacterium violaceum; assay: Antibacterial activity against Chromobacterium violaceum MTCC 2656 assessed as inhibition zones at 100 ug/disk at 37 degC for 24 hr; conditions: MTCC 2656, 24 h, read-out: IZ
[4] = system: Lysinibacillus sphaericus; assay: Antibacterial activity against Lysinibacillus sphaericus MTCC 11 assessed as inhibition zones at 100 ug/disk at 37 degC for 24 hr; conditions: MTCC 11, 24 h, read-out: IZ
Klebsiella aerogenes [5] = assay: Antibacterial activity against Enterobacter aerogenes MTCC 39 assessed as inhibition zones at 100 ug/disk at 37 degC for 24 hr; conditions: MTCC 39, 24 h, read-out: IZ
Pseudomonas aeruginosa [6] = assay: Antibacterial activity against Pseudomonas aeruginosa MTCC 741 assessed as growth arrest at 37 degC for 24 hr; conditions: MTCC 741, 24 h
Staphylococcus aureus [7] = assay: Antibacterial activity against Staphylococcus aureus MTCC 96 assessed as inhibition zones at 100 ug/disc at 37 degC for 24 hr; conditions: MTCC 96, 24 h, read-out: IZ
[8] = system: Lysinibacillus sphaericus; assay: Antibacterial activity against Lysinibacillus sphaericus MTCC 11 assessed as growth arrest at 37 degC for 24 hr; conditions: MTCC 11, 24 h
Bacillus subtilis [9] = assay: Antibacterial activity against Bacillus subtilis MTCC 441 assessed as growth arrest at 37 degC for 24 hr; conditions: MTCC 441, 24 h
Bacillus subtilis [10] = assay: Antibacterial activity against Bacillus subtilis MTCC 441 assessed as inhibition zones at 100 ug/disk at 37 degC for 24 hr; conditions: MTCC 441, 24 h, read-out: IZ
Pseudomonas aeruginosa [11] = assay: Antibacterial activity against Pseudomonas aeruginosa MTCC 741 assessed as inhibition zones at 100 ug/disk at 37 degC for 24 hr; conditions: MTCC 741, 24 h, read-out: IZ
Staphylococcus aureus [12] = assay: Antibacterial activity against Staphylococcus aureus MTCC 96 assessed as growth arrest at 37 degC for 24 hr; conditions: MTCC 96, 24 h
Staphylococcus aureus [13] = assay: Antibacterial activity against Staphylococcus aureus MTCC 96 assessed as inhibition zones at 300 ug/disc at 37 degC for 24 hr; conditions: MTCC 96, 24 h, read-out: IZ
Aspergillus fumigatus [14] = assay: Antifungal activity against Aspergillus fumigatus HIC 6094 assessed as growth inhibition at 37 degC for 48 hr; conditions: HIC 6094, 48 h
[15] = system: Trichophyton mentagrophytes; assay: Antifungal activity against Trichophyton mentagrophytes IFO 40996 assessed as growth inhibition at 300 ug/disc at 37 degC for 48 hr
[16] = system: Ditylenchus myceliophagus; assay: Nematicidal activity against Ditylenchus myceliophagus assessed as immobility; conditions: read-out: LD50 (the source's name)
[17] = system: Chromobacterium violaceum; assay: Antibacterial activity against Chromobacterium violaceum MTCC 2656 assessed as inhibition zones at 300 ug/disk at 37 degC for 24 hr; conditions: MTCC 2656, 24 h, read-out: IZ
Trichophyton rubrum [18] = assay: Antifungal activity against Trichophyton rubrum IFO 9185 assessed as growth inhibition at 300 ug/disk at 37 degC for 48 hr; conditions: IFO 9185, 48 h, read-out: IZ
[19] = system: Lysinibacillus sphaericus; assay: Antibacterial activity against Lysinibacillus sphaericus MTCC 11 assessed as inhibition zones at 300 ug/disk at 37 degC for 24 hr; conditions: MTCC 11, 24 h, read-out: IZ
Aspergillus fumigatus [20] = assay: Antifungal activity against Aspergillus fumigatus HIC 6094 assessed as growth inhibition at 300 ug/disc at 37 degC for 48 hr
Pseudomonas aeruginosa [21] = assay: Antibacterial activity against Pseudomonas aeruginosa MTCC 741 assessed as inhibition zones at 300 ug/disk at 37 degC for 24 hr; conditions: MTCC 741, 24 h, read-out: IZ
Bacillus subtilis [22] = assay: Antibacterial activity against Bacillus subtilis MTCC 441 assessed as inhibition zones at 300 ug/disk at 37 degC for 24 hr; conditions: MTCC 441, 24 h, read-out: IZ
Klebsiella aerogenes [23] = assay: Antibacterial activity against Enterobacter aerogenes MTCC 39 assessed as inhibition zones at 300 ug/disk at 37 degC for 24 hr; conditions: MTCC 39, 24 h, read-out: IZ
Trichophyton rubrum [24] = assay: Antifungal activity against Trichophyton rubrum IFO 9185 assessed as growth inhibition at 37 degC for 48 hr; conditions: IFO 9185, 48 h
Caenorhabditis elegans = assay: Nematicidal activity against Caenorhabditis elegans assessed as immobility; conditions: read-out: LD50 (the source's name)
Candida albicans [25] = assay: Antifungal activity against Candida albicans ATCC 10231 assessed as growth inhibition at 37 degC for 48 hr; conditions: ATCC 10231, 48 h
[26] = system: Trichophyton mentagrophytes; assay: Antifungal activity against Trichophyton mentagrophytes IFO 40996 assessed as growth inhibition at 37 degC for 48 hr; conditions: IFO 40996, 48 h
Candida albicans [27] = assay: Antifungal activity against Candida albicans ATCC 10231 assessed as growth inhibition at 300 ug/disk at 37 degC for 48 hr

SMILES	MBC (Klebsiella aerogenes [1])	MIC (Klebsiella aerogenes [1])	MBC [2]	MIC [2]	zone of inhibition at 100 µg/disc [3]	zone of inhibition at 100 µg/disc [4]	zone of inhibition at 100 µg/disc (Klebsiella aerogenes [5])	MBC (Pseudomonas aeruginosa [6])	MIC (Pseudomonas aeruginosa [6])	zone of inhibition at 100 µg/disc (Staphylococcus aureus [7])	MBC [8]	MIC [8]	MBC (Bacillus subtilis [9])	MIC (Bacillus subtilis [9])	zone of inhibition at 100 µg/disc (Bacillus subtilis [10])	zone of inhibition at 100 µg/disc (Pseudomonas aeruginosa [11])	MBC (Staphylococcus aureus [12])	MIC (Staphylococcus aureus [12])	other results
CC1(C)S[C@@H]2[C@H](NC(=O)Cc3ccccc3)C(=O)N2[C@H]1C(=O)O [PENICILLIN G]	12.5 µg/mL (≈ 37.4 µM)	6.25 µg/mL (≈ 18.7 µM)	12.5 µg/mL (≈ 37.4 µM)	12.5 µg/mL (≈ 37.4 µM)	25 mm	28 mm	30 mm	12.5 µg/mL (≈ 37.4 µM)	6.25 µg/mL (≈ 18.7 µM)	40 mm	25 µg/mL (≈ 74.8 µM)	3.12 µg/mL (≈ 9.33 µM)	6.25 µg/mL (≈ 18.7 µM)	1.56 µg/mL (≈ 4.67 µM)	25 mm	25 mm	6.25 µg/mL (≈ 18.7 µM)	1.56 µg/mL (≈ 4.67 µM)	
COc1ccc(Cc2ccc(OC)c(C3SC4C(=NN(c5ccccc5)C4c4ccc(F)cc4)N3c3ccc(Cl)cc3)c2)cc1C1SC2C(=NN(c3ccccc3)C2c2ccc(F)cc2)N1c1ccc(Cl)cc1 (stereo not drawn)	25 µg/mL (≈ 23.9 µM)	12.5 µg/mL (≈ 12 µM)	25 µg/mL (≈ 23.9 µM)	12.5 µg/mL (≈ 12 µM)				12.5 µg/mL (≈ 12 µM)	6.25 µg/mL (≈ 5.99 µM)		50 µg/mL (≈ 47.9 µM)	12.5 µg/mL (≈ 12 µM)	25 µg/mL (≈ 23.9 µM)	6.25 µg/mL (≈ 5.99 µM)			50 µg/mL (≈ 47.9 µM)	25 µg/mL (≈ 23.9 µM)	zone of inhibition at 300 µg/disc (Staphylococcus aureus [13]): 20 mm; MBC (Aspergillus fumigatus [14]): 25 µg/mL (≈ 23.9 µM); MIC (Aspergillus fumigatus [14]): 12.5 µg/mL (≈ 12 µM); inhibition zone (IZ) [15]: inactive; LC50 [16]: 810 µg/mL (≈ 776 µM); zone of inhibition at 300 µg/disc [17]: 20 mm; zone of inhibition at 300 µg/disc (Trichophyton rubrum [18]): 17 mm; zone of inhibition at 300 µg/disc [19]: 21 mm; inhibition zone (IZ) (Aspergillus fumigatus [20]): inactive; zone of inhibition at 300 µg/disc (Pseudomonas aeruginosa [21]): 19 mm; zone of inhibition at 300 µg/disc (Bacillus subtilis [22]): 18 mm; zone of inhibition at 300 µg/disc (Klebsiella aerogenes [23]): 22 mm; MBC (Trichophyton rubrum [24]): 12.5 µg/mL (≈ 12 µM); MIC (Trichophyton rubrum [24]): 12.5 µg/mL (≈ 12 µM); LC50 (Caenorhabditis elegans): 650 µg/mL (≈ 623 µM); MBC (Candida albicans [25]): 6.25 µg/mL (≈ 5.99 µM); MIC (Candida albicans [25]): 6.25 µg/mL (≈ 5.99 µM); MBC [26]: 12.5 µg/mL (≈ 12 µM); MIC [26]: 6.25 µg/mL (≈ 5.99 µM); inhibition zone (IZ) (Candida albicans [27]): inactive
CN[C@@H]1[C@H](O[C@H]2[C@H](O[C@H]3[C@H](O)[C@@H](O)[C@H](N=C(N)N)[C@@H](O)[C@@H]3N=C(N)N)O[C@@H](C)[C@]2(O)C=O)O[C@@H](CO)[C@H](O)[C@H]1O [STREPTOMYCIN]	6.25 µg/mL (≈ 10.7 µM)	1.56 µg/mL (≈ 2.68 µM)	6.25 µg/mL (≈ 10.7 µM)	3.12 µg/mL (≈ 5.36 µM)	20 mm	20 mm	25 mm	6.25 µg/mL (≈ 10.7 µM)	1.56 µg/mL (≈ 2.68 µM)	41 mm	25 µg/mL (≈ 43 µM)	6.25 µg/mL (≈ 10.7 µM)	12.5 µg/mL (≈ 21.5 µM)	6.25 µg/mL (≈ 10.7 µM)	30 mm	15 mm	12.5 µg/mL (≈ 21.5 µM)	6.25 µg/mL (≈ 10.7 µM)	
